Literature values as cited in paper PMC5522529, “Mechanisms of Paradoxical Activation of AMPK by the Kinase Inhibitors SU6656 and Sorafenib” (Cell Chemical Biology, 2017).

System: LKB1 versus AMPK
Set-up: method as in MRC Kinase Inhibitor Database
Settings: ref MRC Kinase Inhibitor Database; cited from earlier work

Structure (SMILES): c1cc(-c2cnn3cc(-c4ccc(OCCN5CCCCC5)cc4)cnc23)ccn1 [compound C]
- potency of LKB1 inhibition relative to AMPK inhibition: inhibit LKB1 with similar potency to AMPK
